This note sets out measurements from patent publication US20050187389A1, “Pyrrolopyrimidine derivatives and analogs and their use in the treatment and prevention of diseases” (Ambit Biosciences Corporation, priority 2004, published 2005).

One experiment deals with T1, ABL1 (Homo sapiens, UniProt P00519).
T1 construct: made in house
T1 sequence (P00519 242-493 limits assumed): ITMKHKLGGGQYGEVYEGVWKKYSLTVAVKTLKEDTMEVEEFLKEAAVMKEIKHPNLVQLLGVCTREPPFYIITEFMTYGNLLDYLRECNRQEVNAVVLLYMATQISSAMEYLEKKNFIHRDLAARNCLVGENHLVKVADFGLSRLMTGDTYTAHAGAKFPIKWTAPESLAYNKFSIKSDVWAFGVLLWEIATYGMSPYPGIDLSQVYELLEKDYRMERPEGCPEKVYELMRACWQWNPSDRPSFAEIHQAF
As to the kind of experiment: ABL1 (DKIN) phage-display competitive binding assay. From the text:
(§1) Methods for measuring binding affinities for interactions between small molecules and kinases including FLT3, c-KIT, ABL(T334I) [a.k.a. ABL(T315I)], VEGFR-2 (a.k.a. KDR), and EGFR are described in detail in U.S. application Ser. No. 10/873,835, which is incorporated by reference herein in its entirety. The components of the assays include human kinases expressed as fusions to T7 bacteriophage particles and immobilized ligands that bind to the ATP site of the kinases. […] If the test compound binds the kinase it competes with the immobilized ligand and prevents binding to the solid support. […] The results are read out by quantitating the amount of fusion protein bound to the solid support, which is accomplished by either traditional phage plaque assays or by quantitative PCR (qPCR) using the phage genome as a template. […] The concentration of test molecule that reduces the number of phage bound to the solid support by 50% is equal to the Kd for the interaction between the kinase and the test molecule. Typically, data are collected for twelve concentrations of test compound and, the resultant binding curve is fit to a non-cooperative binding isotherm to calculate Kd.
(§2) Described in the exemplary assays below is data from binding with varying kinases. […] The term “ND” represents non-determined values.

A further experiment addresses T2, VEGFR-2 (Homo sapiens, UniProt P35968).
T2 construct: made in house
Kind of experiment: VEGFR-2 phage-display competitive binding assay.
From the text: as §1, §2

For another experiment, the target named is T3, PDGFR-β (Homo sapiens, UniProt P09619).
T3 construct: Kd for PDGFR-β (DKIN); made in house
T3 sequence (P09619 600-962 limits assumed): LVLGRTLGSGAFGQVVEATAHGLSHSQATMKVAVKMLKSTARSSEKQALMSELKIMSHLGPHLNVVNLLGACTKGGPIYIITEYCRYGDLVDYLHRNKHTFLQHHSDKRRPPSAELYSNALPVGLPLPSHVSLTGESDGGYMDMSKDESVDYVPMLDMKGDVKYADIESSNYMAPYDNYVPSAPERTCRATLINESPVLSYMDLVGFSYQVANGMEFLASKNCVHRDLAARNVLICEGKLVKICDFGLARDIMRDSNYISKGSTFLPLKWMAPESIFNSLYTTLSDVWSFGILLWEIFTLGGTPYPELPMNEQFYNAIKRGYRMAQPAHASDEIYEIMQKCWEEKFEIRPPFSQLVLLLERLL
Kind of experiment: PDGFR-β (DKIN) phage-display competitive binding assay.
From the text: as §1, §2
Kd values for the interactions between PDGFR-β and candidate small molecule ligands were measured by a phage-display-based competitive binding assay that is described in detail in U.S. Ser. No. 10/406,797 filed 2 Apr. 2003 and incorporated herein by reference. Briefly, T7 phage displaying human PDGFR-β were incubated with an affinity matrix coated with known PDGFR-β inhibitor in the presence of various concentrations of the soluble competitor molecules. […] The Kd for the interaction between the soluble competitor molecule and PDGFR-β is equal to the concentration of soluble competitor molecule that causes a 50% reduction in the number of phage recovered in the eluate compared to a control sample lacking soluble competitor. Since this assay is generic, and any molecule can be used as a soluble competitor, we have determined Kd values for the interaction between PDGFR-β and several small molecules, including those shown below.

The target of a further experiment is T4, FLT3 (Homo sapiens, UniProt P36888).
T4 construct: made in house
T4 sequence (P36888 610-943 limits assumed): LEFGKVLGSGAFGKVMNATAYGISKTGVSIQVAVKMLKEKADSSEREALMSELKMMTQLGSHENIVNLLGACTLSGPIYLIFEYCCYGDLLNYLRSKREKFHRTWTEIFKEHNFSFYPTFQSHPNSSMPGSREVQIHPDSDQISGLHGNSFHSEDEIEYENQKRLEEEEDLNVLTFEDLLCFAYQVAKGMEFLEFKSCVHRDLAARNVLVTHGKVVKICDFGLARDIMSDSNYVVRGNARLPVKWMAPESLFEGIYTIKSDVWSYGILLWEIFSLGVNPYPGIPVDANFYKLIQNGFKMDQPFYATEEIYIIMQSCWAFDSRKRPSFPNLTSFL
As to the kind of experiment: FLT3 (DKIN) phage-display competitive binding assay.
From the text: as §1, §2

Experiment [1] has as its system MV4,11 cells. Kind of experiment: FLT-3 cell assay, (MV 4,11) cell proliferation assay with 10% serum "CS0005". Format: cell-based, human. Here is the method:
(§3) The ability of FLT3 kinase inhibitors to inhibit cellular proliferation was also examined. MV4:11 was a cell line derived from a patient with acute myelogenous leukemia. It expressed a mutant FLT3 protein that was constitutively active. […] Inhibition of FLT3 kinase activity prevented proliferation of these cells, and thus the MV4:11 cell line can be used a model for cellular activity of small molecule inhibitors of FLT3.
(§4) FLT3 Assay using MV4,11 Cells
(§5) MV4,11 cells were grown in an incubator @ 37° C. in 5% CO2 in Medium 2 (RPMI, 10% FBS, 4 mM glutamine, Penn/Strep). The cells were counted daily and the cell density was kept between 1e5 and 8e5 cells/ml.
Day One: Enough cells were harvested for experiments to be conducted in 50 ml conical tubes. The harvested cells were spun at 500 g for 5 min at 4° C., the supernatant was then aspirated and the cells were resuspended in the starting volume of 1× PBS. The cells were again spun at 500 g for 5 min at 4° C. and the supernatant again aspirated. The cells were then resuspended in medium 3 (DMEM w/glut, 10% FBS, Penn/Strep) to a density of 4e^5 cells/ml and incubated @ 37° C. in 5% CO2 O/N.
(§6) Day Two: The cells were counted and enough medium 3 was added to decrease density to 2e5 cells/ml. 50 ul (10,000 cells) was aliquoted into each well of a 96 well optical plate using multichannel pipetman. […]

Experiment [2] deals with MV4,11 cells. Kind of experiment: (MV 4,11) Cell Proliferation Assay with 0.5% Serum "CS0001". The format is cell-based. The note with it: Homo sapiens. Here is the method: as §3, §4, §5
Day One: Enough cells were harvested for experiments to be conducted in 50 ml conical tubes. The harvested cells were spun at 500 g for 5 min at 4° C., the supernatant was then aspirated and the cells were resuspended in the starting volume of 1× PBS. The cells were again spun at 500 g for 5 min at 4° C. and the supernatant again aspirated. […]
as §6

pKd: −log10 of the molar value.

T2 sequence (P35968 20-1356): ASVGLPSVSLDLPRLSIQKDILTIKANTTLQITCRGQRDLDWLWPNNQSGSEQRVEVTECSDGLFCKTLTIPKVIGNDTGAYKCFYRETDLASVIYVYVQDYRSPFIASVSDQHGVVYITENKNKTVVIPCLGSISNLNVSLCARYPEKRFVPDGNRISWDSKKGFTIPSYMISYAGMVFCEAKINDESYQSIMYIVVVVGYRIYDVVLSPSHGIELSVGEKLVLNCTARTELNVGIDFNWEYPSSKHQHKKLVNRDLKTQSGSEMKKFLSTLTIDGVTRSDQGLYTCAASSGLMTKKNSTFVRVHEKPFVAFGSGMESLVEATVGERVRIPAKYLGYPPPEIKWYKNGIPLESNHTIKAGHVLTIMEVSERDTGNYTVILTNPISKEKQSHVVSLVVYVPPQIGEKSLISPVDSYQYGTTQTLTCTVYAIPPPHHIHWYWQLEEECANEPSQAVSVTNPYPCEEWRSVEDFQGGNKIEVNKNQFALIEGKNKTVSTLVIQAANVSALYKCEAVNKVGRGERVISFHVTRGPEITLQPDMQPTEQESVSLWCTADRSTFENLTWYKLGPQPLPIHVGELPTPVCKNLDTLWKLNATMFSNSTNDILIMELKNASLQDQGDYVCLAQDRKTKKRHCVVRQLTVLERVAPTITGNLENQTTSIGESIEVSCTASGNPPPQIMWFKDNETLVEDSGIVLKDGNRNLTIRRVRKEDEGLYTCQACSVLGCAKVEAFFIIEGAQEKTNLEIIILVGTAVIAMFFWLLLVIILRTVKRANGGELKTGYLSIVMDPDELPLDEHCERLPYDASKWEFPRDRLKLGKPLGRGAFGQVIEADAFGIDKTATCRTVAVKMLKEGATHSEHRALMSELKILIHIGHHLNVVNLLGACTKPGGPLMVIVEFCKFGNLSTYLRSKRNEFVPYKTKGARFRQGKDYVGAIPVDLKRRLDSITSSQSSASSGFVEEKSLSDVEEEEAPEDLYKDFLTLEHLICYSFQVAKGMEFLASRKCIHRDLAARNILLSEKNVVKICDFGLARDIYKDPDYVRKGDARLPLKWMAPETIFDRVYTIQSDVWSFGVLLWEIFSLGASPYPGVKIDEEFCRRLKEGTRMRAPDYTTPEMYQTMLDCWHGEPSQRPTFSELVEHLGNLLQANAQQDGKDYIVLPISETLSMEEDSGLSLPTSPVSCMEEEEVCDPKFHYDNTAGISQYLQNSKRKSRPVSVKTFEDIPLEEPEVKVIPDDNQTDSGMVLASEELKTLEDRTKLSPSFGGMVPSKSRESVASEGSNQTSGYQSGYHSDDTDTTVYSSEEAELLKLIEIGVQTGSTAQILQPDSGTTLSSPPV

Consider `COc1ccc(-c2cc3c(N[C@@H](C)c4ccccc4)ncnc3n2C(C)C)cc1` [Compound D10], for which the pKd at ABL1 was 5.00 to 6.00.

As for `CC(Nc1ncnc2oc(-c3ccccc3)c(-c3ccccc3)c12)c1ccccc1` (stereo not shown) [Compound H3], at VEGFR-2, the negative logarithm of the Kd (pKd) was under 5.00.

As for `COc1ccc(-c2cc3c(NCc4cccc(C)c4)ncnc3[nH]2)cc1` [Compound I4], the negative logarithm of the Kd (pKd) on PDGFR-β was 6.00 to 7.00.

With `COC(=O)C(Nc1ncnc2[nH]c(-c3ccc(OC)cc3)cc12)c1ccccc1` (stereo not shown) [Compound I7], the pKd on PDGFR-β was 6.00 to 7.00.

Regarding `COc1ccc(-c2cc3c(NCCc4ccccc4)ncnc3[nH]2)cc1` [Compound I8], the pKd at ABL1 is 6.00 to 7.00; on PDGFR-β, 5.00 to 6.00.

On ABL1, `C[C@H](Nc1ncnc2[nH]c(-c3ccc(O)cc3)cc12)c1ccccc1` [Compound I9] had a pKd of 5.00 to 6.00.

`COc1cccc(-c2cc3c(N[C@H](C)c4ccccc4)ncnc3[nH]2)c1` [Compound I10] showed a pKd at PDGFR-β of 6.00 to 7.00.

As for `COc1cccc(-c2cc3c(NCc4cccc(C)c4)ncnc3[nH]2)c1` [Compound I12], the negative-log Kd (pKd) at FLT3 was under 5.00.

With `COc1ccc(-c2cc3c(N[C@H](C)c4ccccc4)nc(N[C@@H](C)c4ccccc4)nc3[nH]2)cc1` [Compound M22], the pKd on PDGFR-β was 6.00 to 7.00.

In turn, `C[C@@H](Nc1ncnc2c1cc(-c1ccc(O)cc1)n2C)c1ccccc1` [Compound Q2] gave a pKd on PDGFR-β of 6.00 to 7.00.

`Cn1c(-c2ccc(O)cc2)cc2c(Nc3ccccc3Cl)ncnc21` [Compound Q3] had a pKd on PDGFR-β of 6.00 to 7.00.

Compound `CCc1ccccc1Nc1ncnc2c1cc(-c1ccc(O)cc1)n2C` [Compound Q4] showed a negative-log Kd (pKd) on PDGFR-β of 6.00 to 7.00.

The compound `COc1ccc(-c2cc3c(Nc4cccc(O)c4)ncnc3[nH]2)cc1` [Compound S6] gave a pKd at PDGFR-β of under 5.00.

On to `COc1ccc(-c2cc3c(Nc4ccc(F)c(Cl)c4)ncnc3[nH]2)cc1` [Compound S7], for which the pKd on PDGFR-β is under 5.00.

For `COc1ccc(-c2cc3c(Nc4ccc(F)cc4)ncnc3[nH]2)cc1` [Compound S9], on PDGFR-β, the pKd is 6.00 to 7.00.

As to `COc1ccc(-c2cc3c(Nc4cccc(C)c4)ncnc3[nH]2)cc1` [Compound S10], the “activity in the FLT-3 cell assay, (MV 4,11) cell proliferation assay with 10% serum, "CS0005"” value in the experiment on MV4,11 cells [1] is “++ (a Kd of 1,000 nM to 10,000 nM)”. The 50% inhibitory concentration (IC50) with MV4,11 cells [2] is under 100 nM. At PDGFR-β, this compound showed a negative logarithm of the Kd (pKd) of 6.00 to 7.00.

In the case of `COC(=O)c1cccc(Nc2ncnc3[nH]c(-c4cccc(OC)c4)cc23)c1` [Compound S15], at PDGFR-β, the negative logarithm of the Kd (pKd) was 5.00 to 6.00.

Regarding `COc1cccc(-c2cc3c(Nc4cccc(O)c4)ncnc3[nH]2)c1` [Compound S16], the values for the negative logarithm of the Kd (pKd) at ABL1, at FLT3 and at PDGFR-β were 6.00 to 7.00, 6.00 to 7.00 and 5.00 to 6.00, respectively.

The compound `Cc1cc(C)cc(Nc2ncnc3[nH]c(-c4ccc(Br)cc4)cc23)c1` [Compound S39] had a negative-log Kd (pKd) on FLT3 of under 5.00. For the same compound, the IC50 in the experiment with MV4,11 cells [2] is 100 to 1000 nM.
